These results are taken from patent US6723527B2, “Methods for determining toxicity reversing agents” (Board of Regents, The University of Texas System, priority 2001, dated 2004).

What all share (format): cell-based
The subject of one series is human lymphocytes. The series is described as follows: lymphocyte response to varied culture medium components. As for the experimental part: Culture medium suitable for the growth of human lymphocytes is prepared as follows: To 50 ml of medium buffer 72 mg glucose is added, 1 ml amino acid supplement, 1 ml of a 16.5 mg/ml pyruvate: 2.64 mg/ml cysteine solution, 1 ml of a 1.4 mg/ml choline chloride; 1.8 mg/ml inositol solution, 1 ml of the above indicated vitamin supplement, and 1 ml of a 135 μg/ml adenine solution. The pH is adjusted with dilute NaOH to 7.6. Supplements of the following are then added: 1 ml of the antibiotic supplement, 0.5 ml of a 22.2 mg/ml calcium chloride solution, 0.5 ml of a 24 mg/ml magnesium sulfate solution, 1 ml of a solution of 0.278 mg/ml ferrous sulfate in 0.149 mg/ml EDTA. Deionized water is added to a final volume of 100 ml and the medium is filtered through Nalgene membrane filter units for sterilization. After filtration 0.2 ml of a 1 mg/ml sterile solution of phytohemagglutinin (PHA) is added to each 100 ml of media. PHA is obtained from Sigma Chemical Co. in 5 mg quantities and is diluted with sterile, deionized water.
Accordingly, a culture medium suitable for determining the growth or other responses of lymphocytes comprises a serum-free, buffered (pH 7.6) solution in deionized water comprises per liter of solution the following components as described in Table 1:
The components of the culture medium of Table 1 can be varied. In general, effective amounts of the components are used and can vary widely for the various growth assays of the invention and for individual patients. An effective amount of a component, as used herein, is an amount which will obtain a desired response from the patient. […] For most patients and assays the following ranges of components are satisfactory. The precise amounts of the components to provide an effective response can be determined by simple experimentation with the culture medium.
The following is an example of a lymphocyte assay: Previously sterilized 96 well microtiter plates (Corning) are used in this assay procedure. 0.2 milliliters of the culture medium is added to each well. Where necessary, variable supplements up to 10 μl may be added to each tube, or a smaller volume of an appropriately higher concentration of the medium can be added to the tubes and supplements then added to make a final volume of 0.2 ml. The assay is then inoculated with 10 μl of the diluted lymphocyte suspension (22,000 lymphocytes).
Incubation. The plates are incubated for 4 days at 37° C. in a 5% carbon dioxide atmosphere saturated with water vapor. […]
Harvesting. […] The filter papers are dried for 5 minutes in a drying oven at 120° C. and then counted on a Matrix 96 Beta Counter (Packard).

The subject of series [1] is human peripheral blood lymphocytes. In words: lymphocyte growth inhibition assay ([3H]-thymidine incorporation) in chemically defined medium. As to conditions: for IC50: Homo sapiens, Lymphocyte, read-out: Amount Required to Inhibit Growth by 50%. As for the experimental part:
The medium is also described in the specification above. Various concentrations of amino acids can be used in the medium to determine the effect on growth or growth inhibition.
Human peripheral blood was collected from a group of patients in the clinic. […] Experiments were conducted in 96 well microtite plates. Triplicate samples were run in all experiments. […] For reversal of toxicity CoQ10 was added at a concentration of 0.5 μg/ml, and the patient's own plasma at a concentration of 0.1%. All chemicals were obtained from Sigma Chemical Corporation. […] Cells were then pulsed with 10 μl [^3H]-thymidine (0.29×10^-6M final concentration; specific activity […]). Twenty-four hours later, cells were harvested using an Inotech Cell Harvester. Radioactive incorporation was measured using a Packard Matrix 96 Beta Counter.
(Uptake of a labelled nucleoside into DNA is a usual measure of proliferation.)

For series [2] the test system is unchanged. The series is described as follows: reversal of Lipitor (statin) toxicity in the lymphocyte culture assay. As to conditions: Lipitor present; CoQ10 0.5 μg/ml, patient's own plasma 0.1%; all subjects. The source says:
The present invention also provides a composition comprised in the plasma that has the ability to ameliorate the toxicity of metabolic inhibitors such as the statins. […] It is contemplated that the plasma composition may comprise at least one peptide, a polypeptide, a protein or a small molecule which is associated with or bound to at least one peptide, polypeptide, or protein. The plasma composition may also comprise a lipid moiety, and/or a carbohydrate moiety and/or a nucleic acid component. As the plasma composition is heat-labile, it is contemplated to comprise at least one heat-labile peptide, polypeptide, or protein that may additionally be associated with or bound to at least one small molecule which may be a lipid moiety, and/or a carbohydrate moiety and/or a nucleic acid moiety.
The medium used in this study was the same as described previously (See U.S. Pat. No. 4,499,064, herein expressly incorporated by reference) except that the concentration the amino acids used was increased five fold. The medium is also described in the specification above. […]
Human peripheral blood was collected from a group of patients in the clinic. Lymphocytes were isolated as described (Shive, 1986), counted in a Coulter Counter, and inoculated into the medium at a concentration of 110,000 cells per ml. […] Radioactive incorporation was measured using a Packard Matrix 96 Beta Counter. […]

The mark [3] stands for this setting: patients' lymphocytes, 4 days incubation then 24 h [3H]-thymidine pulse.
Where [4] appears, read: at concentrations of up to 0.2 mg/ml.

The structures appear in SMILES notation. ≈ marks a conversion by molar mass, not a printed value. Where two headings read alike, the source gives them in different places. Bounds are passed on as bounds.

Take `Nc1ncnc2nc[nH]c12` [Adenine]: the “concentration in culture medium that is toxic to lymphocytes” value with human lymphocytes (medium of Table 1, component varied) amounted to 135 µg/mL.
Turning to `[Al]` [Aluminum], in series [1] (setting [3]), the “Amount Required to Inhibit Growth by 50%” value came out at 0.005 mg/mL.
On to `Cn1c(=O)c2c(ncn2C)n(C)c1=O` [Caffeine], for which the IC50 in series [1] (setting [3]) worked out at 77.6 µg/mL (≈ 400 µM).
Turning to `COC1=C(OC)C(=O)C(C/C=C(\C)CC/C=C(\C)CC/C=C(\C)CC/C=C(\C)CC/C=C(\C)CC/C=C(\C)CC/C=C(\C)CC/C=C(\C)CC/C=C(\C)CCC=C(C)C)=C(C)C1=O` [CoQ10, Co enzyme Q10], in series [2], the “reversal of Lipitor toxicity” value was “offers some protection, but it is not totally effective alone”.
For the compound `CN1C(=O)CN=C(c2ccccc2)c2cc(Cl)ccc21` [Diazepam], the IC50 in series [1] turned out to be 20 µg/mL (≈ 70.2 µM).
On to `CCO` [Ethanol], for which the IC50 in series [1] (setting [3]) amounted to 10000 µg/mL (≈ 217000 µM).
Regarding `O[C@H]1[C@H](O)[C@@H](O)[C@H](O)[C@@H](O)[C@H]1O` [Inositol], the Emax at 0.018 µg/mL in the series with human lymphocytes (Homo sapiens, Lymphocyte, inositol 0.018 mg/l in medium, read-out: lymphocyte response, % of maximal response) was ~70%. For the same compound, in the series on human lymphocytes (Homo sapiens, Lymphocyte, inositol 0.18 mg/l in medium, read-out: lymphocyte response, % of maximal response), the Emax at 0.18 µg/mL is 90 to 100%.
As for `NNC(=O)c1ccncc1` [Isoniazid], in series [1] (setting [3]), the IC50 was 548 µg/mL (≈ 4000 µM).
Same read-out and setting: the same measure for `CC(C)c1c(C(=O)Nc2ccccc2)c(-c2ccccc2)c(-c2ccc(F)cc2)n1CC[C@@H](O)C[C@@H](O)CC(=O)O` [Lipitor, Atorvastatin]: < 0.1 µg/mL.
Turning to `CN(Cc1cnc2nc(N)nc(N)c2n1)c1ccc(C(=O)N[C@@H](CCC(=O)O)C(=O)O)cc1` [Methothrexate], the “Amount Required to Inhibit Growth by 50%” value in series [1] (setting [3]) was <0.00002 mg/mL.
As for `CC[C@H](C)C(=O)O[C@H]1C[C@@H](C)C=C2C=C[C@H](C)[C@H](CC[C@@H]3C[C@@H](O)CC(=O)O3)[C@H]21` [Mevacor, Lovastatin], the IC50 in series [1] (setting [3]) is < 0.1 µg/mL.
Take `N[C@@H](CCC(=O)O)C(=O)[O-].[Na+]` [Monosodium Glutamate]: the IC50 in series [1] was 7500 µg/mL.
`CC[C@H](C)C(=O)O[C@H]1C[C@H](O)C=C2C=C[C@H](C)[C@H](CC[C@@H](O)C[C@@H](O)CC(=O)O)[C@H]21` [Pravachol, Pravastatin sodium]: the IC50 in series [1] (setting [3]) is < 0.1 µg/mL.
For `CC(=O)C(=O)O` [Pyruvate], the “concentration in culture medium that is toxic to lymphocytes” value in the series with human lymphocytes (human, 4 days, pH 7.6) is 1650 µg/mL.
For the compound `CC1=C(/C=C/C(C)=C/C=C/C(C)=C/CO)C(C)(C)CCC1` [Retanol], in series [1] (setting [3]), the IC50 was found to be 0.5 µg/mL (≈ 1.75 µM).
Consider `O=C(O)c1ccccc1O` [Salicylate], for which the “Amount Required to Inhibit Growth by 50%” value in series [1] (setting [3]) was found to be 0.005 mg/mL.
As to `Cn1c(=O)c2[nH]cnc2n(C)c1=O` [Theophyline], the IC50 in series [1] (setting [3]) was 30 µg/mL (≈ 167 µM).
For the compound `CCCC(CCC)C(=O)O` [Valproic Acid (Depakote), Valproic Acid], in series [1] (patients' lymphocytes, 4 days incubation then 24 h [3H]-thymidine pulse, unit printed μg/ml), the IC50 was in the range of 0.4 to 1.2 µg/mL (≈ 2.77 to 8.32 µM).
As to `CCC(C)(C)C(=O)O[C@H]1C[C@@H](C)C=C2C=C[C@H](C)[C@H](CC[C@@H]3C[C@@H](O)CC(=O)O3)[C@H]21` [Zocor, Simvastatin], the IC50 in series [1] (setting [3]) was < 0.1 µg/mL.
On to `N[C@H]1C(O)O[C@H](CO)[C@@H](O)[C@@H]1O` (stereo partly drawn) [glucoseamine], for which the toxicity in lymphocytes result in series [1] (setting [4]) is listed as “did not show toxicity”.
On the same count and under the same terms, to `NCC1(CC(=O)O)CCCCC1` [neuronton] belongs “did not show toxicity”.
Consider `CCC1(c2ccccc2)C(=O)NC(=O)NC1=O` [phenobarbitol], for which the toxicity in lymphocytes entry in series [1] is given as “did not show toxicity”.
Take `Cc1nnc2n1-c1ccc(Cl)cc1C(c1ccccc1Cl)=NC2` [triazolam]: in series [1], the toxicity in lymphocytes result was “did not show toxicity”.
